Measured values as given in ChEMBL document CHEMBL1152151, “Synthesis and preliminary pharmacological evaluation of N-2-(4-(4-(2-substitutedthiazol-4-yl) piperazin-1-yl)-2-oxoethyl)acetamides as novel atypical antipsychotic agents” (Bioorg Med Chem Lett, 2008).
Activity calls are given as the source filed them. The calls are words filed in the database; no cut-off is given here.

What was measured:
Mus musculus [1] = test: Inhibition of dopamine D2 receptor-mediated apomorphine-induced cage climbing behavior in Swiss albino mouse at 1 mg/kg, ip; format: functional, organism-based; parameters: dose 1 mg/kg
Mus musculus [2] = test: Inhibition of dopamine D2 receptor-mediated apomorphine-induced cage climbing behavior in Swiss albino mouse at 10 mg/kg measured on 10 mins; format: functional
Mus musculus [3] = test: Inhibition of dopamine D2 receptor-mediated apomorphine-induced cage climbing behavior in Swiss albino mouse at 10 mg/kg measured on 20 mins; format: functional
Mus musculus [4] = test: Inhibition of dopamine D2 receptor-mediated apomorphine-induced cage climbing behavior in Swiss albino mouse at 10 mg/kg measured on 30 mins; format: functional; conditions: 0.5 h
Mus musculus [5] = test: Inhibition of 5HT2A receptor-mediated quipazine-induced head twitches in Swiss albino mouse at 10 mg/kg; format: functional
Mus musculus [6] = test: Inhibition of 5HT2A receptor-mediated quipazine-induced head twitches in Swiss albino mouse at 0.6 mg/kg, ip; format: functional, organism-based; parameters: dose 0.6 mg/kg
Mus musculus [7] = organism: Mus musculus; test: Toxic cataleptic effect in Swiss albino mouse assessed as maximum average cataleptic time; format: toxicity, organism-based; conditions: in vivo
Mus musculus [8] = organism: Mus musculus; test: Toxic cataleptic effect against Swiss albino mouse; format: toxicity, organism-based; conditions: in vivo
Mus musculus [9] = test: Inhibition of dopamine D2 receptor-mediated apomorphine-induced cage climbing behavior in Swiss albino mouse at 10 mg/kg; format: functional
Mus musculus [10] = test: Ratio of inhibition of quipazine-induced head twitches to inhibition of apomorphine-induced cage climbing behavior in Swiss albino mouse at 10 mg/kg; format: functional

With `O=C(CCCN1CCC(O)(c2ccc(Cl)cc2)CC1)c1ccc(F)cc1` as the compound, how does the Activity (Mus musculus [1]) read?
Its Activity is “Active”.

Which results are given for `Cc1nc2n(c(=O)c1CCN1CCC(c3noc4cc(F)ccc34)CC1)CCCC2` [RISPERIDONE]?
inhibition in vivo at 10 mg/kg (Mus musculus [2]): 91%; inhibition in vivo at 10 mg/kg (Mus musculus [3]): 91%; inhibition in vivo at 10 mg/kg (Mus musculus [4]): 90%; inhibition in vivo at 10 mg/kg (Mus musculus [5]): 100%; Activity (Mus musculus [6]): Active; Activity (Mus musculus [7]): 2.54 s; Activity (Mus musculus [8]): Non-toxic; inhibition in vivo at 10 mg/kg (Mus musculus [9]): 91%; Ratio (Mus musculus [10]): 1.0989

For `CNc1nc(-c2ccc(CCN3CCN(C(=O)CNC(C)=O)CC3)cc2)cs1`, which inhibition in vivo at 10 mg/kg (Mus musculus [2]) is on record?
Its inhibition in vivo at 10 mg/kg is 60%.

What about the inhibition in vivo at 10 mg/kg (Mus musculus [3]) of the same compound?
The inhibition in vivo at 10 mg/kg was 50%.

And the inhibition in vivo at 10 mg/kg (Mus musculus [4])?
The inhibition in vivo at 10 mg/kg was 60%.

What about the inhibition in vivo at 10 mg/kg (Mus musculus [5]) of the same compound?
Its inhibition in vivo at 10 mg/kg is 54%.

And the Activity (Mus musculus [7])?
The Activity was 16.54 s.

And the Activity (Mus musculus [8])?
The Activity was “Non-toxic”.

What about the inhibition in vivo at 10 mg/kg (Mus musculus [9]) of the same compound?
Its inhibition in vivo at 10 mg/kg is 60%.

What about the Ratio (Mus musculus [10]) of the same compound?
The Ratio was 0.9.

Which inhibition in vivo at 10 mg/kg (Mus musculus [2]) does the source give for `CC(=O)NCC(=O)N1CCN(CCc2ccc(-c3nc(C)sc3C)cc2)CC1` here?
Its inhibition in vivo at 10 mg/kg is 65%.

And the inhibition in vivo at 10 mg/kg (Mus musculus [3])?
The inhibition in vivo at 10 mg/kg was 65%.

And the inhibition in vivo at 10 mg/kg (Mus musculus [4])?
The inhibition in vivo at 10 mg/kg was 80%.

And the inhibition in vivo at 10 mg/kg (Mus musculus [5])?
Its inhibition in vivo at 10 mg/kg is 71%.

And the Activity (Mus musculus [7])?
Its Activity is 5.12 s.

And the Activity (Mus musculus [8])?
Its Activity is “Non-toxic”.

What about the inhibition in vivo at 10 mg/kg (Mus musculus [9]) of the same compound?
Its inhibition in vivo at 10 mg/kg is 80%.

And the Ratio (Mus musculus [10])?
The Ratio was 0.8875.

For `CC(=O)NCC(=O)N1CCN(CCc2ccc(-c3csc(C)n3)cc2)CC1`, which inhibition in vivo at 10 mg/kg (Mus musculus [2]) is on record?
Its inhibition in vivo at 10 mg/kg is 70%.

And the inhibition in vivo at 10 mg/kg (Mus musculus [3])?
Its inhibition in vivo at 10 mg/kg is 65%.

What about the inhibition in vivo at 10 mg/kg (Mus musculus [4]) of the same compound?
Its inhibition in vivo at 10 mg/kg is 70%.

And the inhibition in vivo at 10 mg/kg (Mus musculus [5])?
Its inhibition in vivo at 10 mg/kg is 20%.

And the Activity (Mus musculus [7])?
Its Activity is 4.62 s.

And the Activity (Mus musculus [8])?
The Activity was “Non-toxic”.

And the inhibition in vivo at 10 mg/kg (Mus musculus [9])?
Its inhibition in vivo at 10 mg/kg is 70%.

And the Ratio (Mus musculus [10])?
The Ratio was 0.2857.
